Measurements as given in patent publication US20090110701A1, “T-CELL MODULATION” (THE UNIVERSITY COURT OF THE UNIVERSITY OF ABERDEEN, priority 2004, published 2009).

Legend:
Format in all cases: cell-based, human
[1] = tested on: Lymphocytes from patients with autoimmune haemolytic anaemia; test: Peptide mapping assay for sCTLA-4 production (RhD peptides); conditions: 1 million lymphocytes per peptide, five days at 37° C., seven AIHA patients, FIG. 9
Method: Peptide mapping experiments to identify peptides which stimulate sCTLA-4 production were performed as follows. Each peptide (1 to 42) was derived from the RhD autoantigen. Lymphocytes (1 million per peptide) from patients with autoimmune haemolytic anaemia were added to individual peptides and incubated for five days at 37° C. At the end of this period the cell cultures were assessed for an increase in sCTLA-4 production. In these assays a stimulation index of 2 is considered a positive result (twice as much sCTLA-4 detected compared with non-stimulated control).
Certain peptides in some cases stimulated sCTLA-4 production by three, four or even ten times higher than non-stimulated cells alone.

PBMC [2] = test: sCTLA-4 secretion ELISA, PBMC from healthy adult donors
PBMC [3] = test: Cytokine secretion ELISA (IFN-γ, IL-10, IL-4) of PBMC cultures; conditions: FIG. 5a
Method: (§1) Cytokine Secretion ELISA. ELISA were based on previously published methods and were performed from 3-7 days of in vitro cell culture. The following antibody pairs were used: purified mouse anti-IFN-γ (clone NIB42) and biotinylated mouse anti-IFN-γ (clone 4S.B3); purified mouse anti-IL-10 (clone JES3-19F1) and biotinylated mouse anti-IL-10 (clone JES3-12G8); purified mouse anti-IL-4 (clone 8D4-8) and biotinylated mouse anti-IL-4 (clone MP4-25D2) (all from BD Biosciences, Oxford, UK). All recombinant human cytokines (IFN-γ, IL-4, and IL-10) were purchased from Peprotech EC Ltd. (London, UK).

PBMC [4] = test: Proliferation assay (3H thymidine incorporation) of PBMC; conditions: FIG. 5a
Method: Proliferation Assay. Cell proliferation was assessed by the incorporation of ^3H thymidine, as previously described.

[5] = tested on: PBMC from patients with AIHA; test: sCTLA-4 and IL-4 secretion by PBMC from AIHA patients incubated with RhD; conditions: one patient from an initial sample of six, FIG. 3
Method: FIG. 3. Differential stimulation of sCTLA-4 secretion by PBMC sampled from AIHA patients in response to incubation with RhD protein antigen.
as §1
We also developed a similar secretion ELISA for sCTLA-4 with antibodies identified previously. Briefly, sCTLA-4 was measured in vitro by incubating a capture anti-CTLA-4 antibody (clone: BNI3 2μg ml^−1) in 96 well Nunc Maxisorp plates for 2 hours at 37° C. Plates were washed and blocked with 3% BSA before the addition of test cell culture suspension. […] Developed plates were measured with a Multiskan MS microplate photometer (Life and Laboratory Sciences, Basingstoke, UK) at an absorbance of 405 nm. […]

Molecule: SSKYPRSVRRCLPLW [Peptide 1, peptide derived from the RhD autoantigen, residues 2-16]
- stimulation of sCTLA-4 production (stimulation index versus non-stimulated control; 2 is positive) [1]: particularly effective

Molecule: anti-CD3 antibody: Stimulatory anti-CD3 antibody (clone OKT3) purified from hybridoma cell culture supernatants
- sCTLA-4 levels compared with non-stimulated PBMC, all individuals analyzed (PBMC [2]; 12 healthy individuals, FIG. 5b, P<0.01 Wilcoxon for PPD, anti-CD3 data not shown): invariably reduced
- sCTLA-4 levels in vitro compared with non-stimulated PBMC (PBMC [2]; individual donor profile, FIG. 5a, 5 days, 37° C., stimulus 5 μg ml−1): dramatically reduced
- IFN-γ secretion, PPD versus anti-CD3 cultures (PBMC [3]): similar
- IL-10 secretion, anti-CD3 compared with PPD (PBMC [3]): increase
- Proliferation, PPD versus anti-CD3 cultures (PBMC [4]): similar

B1: RhD autoantigen: AIHA-associated autoantigen RhD protein (protein, UniProt Q02161 2-417, looked up)
Blood group Rh(D) polypeptide: SSKYPRSVRRCLPLWALTLEAALILLFYFFTHYDASLEDQKGLVASYQVGQDLTVMAAIGLGFLTSSFRRHSWSSVAFNLFMLALGVQWAILLDGFLSQFPSGKVVITLFSIRLATMSALSVLISVDAVLGKVNLAQLVVMVLVEVTALGNLRMVISNIFNTDYHMNMMHIYVFAAYFGLSVAWCLPKPLPEGTEDKDQTATIPSLSAMLGALFLWMFWPSFNSALLRSPIERKNAVFNTYYAVAVSVVTAISGSSLAHPQGKISKTYVHSAVLAGGVAVGTSCHLIPSPWLAMVLGLVAGLISVGGAKYLPGCCNRVLGIPHSSIMGYNFSLLGLLGEIIYIVLLVLDTVGAGNGMIGFQVLLSIGELSLAIVIALMSGLLTGLLLNLKIWKAPHEAKYFDDQVFWKFPHLAVGF
- IL-4 secretion compared with negative controls [5]: higher levels
- sCTLA-4 secretion compared with negative controls [5]: higher levels
